Data set [1] can be described thus: Solubility in water and octanol and log P at 25°C. As to conditions: for solubility: 25 °C. From the text:
beyond changes in oral bioavailability and solubility. This is particularly relevant when […]
L og P is the logarithmic value of the oil-water partition coefficient P, which refers to the partition equilibrium of undissociated molecules in the oil and water phases. The log P value is closely related to the water solubility, membrane permeability, in vivo ADME process, and affinity of the compound to the receptor and plays a vital role in the permeation of compounds through biological membranes. The log P 0-5 range is optimal for oral drug penetration by passive diffusion, with poor water solubility for high log P compounds and poor lipid […]
experiments to exert drug activity in cells.

The subject of data set [2] is Fasn, Acaca, Lpl, Ucp1, Ppargc1a, Ppargc1b, Elovl3, Cox8b. As to the kind of experiment: qRT-PCR of lipid-metabolism-related genes (eWAT) and thermogenic genes (BAT). The class given is in vivo. The settings on record: db/db mice; for Expression of lipogenic genes (Fasn, Acaca, Lpl) in eWAT: vs vehicle control. An excerpt:
Total RNA was isolated from 3T3-L1 cells and adipose tissue homogenates using Trizol reagent (Invitrogen, Carlsbad, CA, USA). RNA concentration and purity were examined at 260/280 nm using a nanodrop spectrophotometer (NanoDrop One, Thermo Fisher Scientific, USA). The total RNA was reverse transcribed to cDNA using the EasyScript All-in-One First-Strand cDNA Synthesis SuperMix for qPCR kit (TransGen Biotech, Beijing, China). The quantitative reverse transcription polymerase chain reaction was performed using TransStart Top Green qPCR SuperMix (TransGen Biotech, Beijing, China) and an Applied Biosystems 7500 RealTime PCR System (Life Technologies, USA). Relative expression levels were normalized to gapdh expression and quantified using the 2^-ΔΔCt method. The primers were synthesized by Shanghai Sangon Biotech, and the detailed primer sequences were shown in Supplementary Table 5 in the supplementary materials.

The subject of another data set is cAMP. As to the kind of experiment: cAMP levels in eWAT of db/db mice (isoproterenol). The class given is in vivo. More on the design: cAMP levels in eWAT (Figure 4l): unit not given here. As to conditions: for cAMP levels in eWAT: db/db mice, isoproterenol stimulation; for cAMP levels in eWAT (Figure 4l): individual samples 1-6. The method, then:
(§1) The epididymal adipose tissue was dissected, the fresh adipose tissue was weighed and rapidly rinsed with PBS. The adipose tissue was cut and incubated with isoproterenol (10 μM) for 2 h, and homogenized in a cold cleavage buffer to prepare the adipose tissue homogenate. Then the homogenate was centrifuged at 12,000 × g at 4 °C for 15 min, and the supernatant was collected. For 3T3-L1 adipocytes, the adipocytes were treated with or without 50 ng/ml TNF-α or 3 μg IKKε plasmid or 4 μM siIKKε for 24 h and then treated with or without 10 μM ISO or 10 μM BJ for 24 h. Then the cells were lysed in a petri dish, scraped off, and centrifuged at 12,000 × g at 4 °C for 15 min before the supernatant was collected.
Glycerol or cAMP content in adipose tissue and 3T3-L1 adipocytes was determined by a glycerol assay kit (Nanjing Jiancheng Bioengineering Institute, Nanjing, China) or a mouse cAMP assay kit (Nanjing Jiancheng Bioengineering Institute, Nanjing, China). And concentrations were further standardized according to protein concentration.

The subject of the next data set is glycerol release. As to the kind of experiment: Glycerol release in eWAT of db/db mice (isoproterenol). In kind it is in vivo. Details: Glycerol release in eWAT (Figure 4m): unit not given here. The settings on record: for Release of glycerol in eWAT: db/db mice, isoproterenol stimulation; for Glycerol release in eWAT (Figure 4m): individual samples 1-6. The method, then: as §1, with “collected. […]” for “collected. For 3T3-L1 adipocytes, the adipocytes were treated with or without 50 ng/ml TNF-α or 3 μg IKKε plasmid or 4 μM siIKKε for 24 h and then treated with or without 10 μM ISO or 10 μM BJ for 24 h.”, “collected. […] And concentrations were further standardized according to protein concentration.” for “collected.”

The test system of the next data set is 3T3-L1 adipocytes. As to the kind of experiment: Oil Red O staining and lipid quantification.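 For Oil Red O staining of differentiated 3T3-L1 adipocytes spectrophotometric analysis: treatment added on day 8 of adipocyte differentiation.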 In kind it is cell-based, Murine. The settings on record: for Oil Red O staining of differentiated 3T3-L1 adipocytes spectrophotometric analysis: Figure 7b, replicates. The method, then:
Meanwhile, we conducted in vitro experiments to validate the role of BJ in adipocytes. […] These findings were similar to the results in vivo.
Murine 3T3-L1 preadipocytes were the kind gift of Prof. Wenbin Shang and Prof. Xizhong Yu (Nanjing University of Chinese Medicine, China). Cells were cultured in Dulbecco’s modified Eagle’s medium (DMEM) supplemented with 10% (vol/vol) fetal bovine serum (FBS), 1% (vol/vol) penicillin/streptomycin in an incubator at 37 °C and 5% CO2 (until confluent). Two days after the preadipocytes reached 100% confluency (designated day 0), the cells were cultured in DMEM with 10% FBS supplemented with IBMX (0.5 mM final concentration), DEX (1 μM final concentration), and insulin (10 μg/ml final concentration) for 3 days (days 0–3). Then the cells were cultured in a medium containing insulin (10 μg/ml final concentration) for another 3 days (days 3–6).
Lipid accumulation in differentiated adipocytes was observed by Oil Red O staining. The differentiated 3T3-L1 adipocytes were washed with PBS for 3 times and fixed with 4% paraformaldehyde for 30 min at room temperature. The fixed 3T3-L1 adipocytes were washed with PBS for 3 times and stained with Oil Red O solution at room temperature for 60 min. Stained lipid droplets were photographed and then eluted with 100% isopropanol stained Oil Red O. Finally, the optical density (OD) value of the eluent was measured at 510 nm wavelength with a microplate reader.

The test system of the next data set is p-TBK1, p-AMPKα, UCP1. As to the kind of experiment: Western blotting of TNF-α induced 3T3-L1 adipocytes. Details: p-TBK1 / p-AMPKα (western blotting, Figure 7j) / UCP1 (western blotting, Figure 7k): unit not given here. In kind it is cell-based, Murine. The settings on record: for p-TBK1: Figure 7i, replicates; for UCP1 (western blotting, Figure 7k) / p-AMPKα (western blotting, Figure 7j): 3T3-L1 adipocytes, replicates 1-3. As for the experimental part: The adipose tissue or 3T3-L1 adipocytes were homogenized by ultrasound in an ice‐cold RIPA lysis buffer containing 1% PMSF and centrifuged at 12,000 × g at 4°C for 15 min to collect the supernatant. The BCA protein assay kit (Beyotime, Shanghai, China) was used to detect the total protein concentration. Proteins (20-30 μg) of the sample were separated by 10% SDS-PAGE gel and transferred onto polyvinylidene difluoride (PVDF) membranes. Then the PVDF membranes were blocked in 5% skim milk powder in TBS containing 1% Tween-20 (TBST) for 2 h at room temperature and washed with TBST for 3 times. The membranes were incubated with the appropriate primary antibody, IKKε (1:1000 dilution), TBK1 (1:1000 dilution), p-TBK1 Ser172 (1:1000 dilution), p-AMPKα Thr172 (1:1000 dilution), UCP1 (1:1000 dilution), and GAPDH (1:1000 dilution) in the blocking buffer solution at 4 °C overnight. After washing, the membranes were incubated with horseradish peroxidase-conjugated secondary antibodies (in 5% skim milk powder) for 1 h at room temperature. Finally, the membranes were treated with enhanced chemiluminescence agents (Tanon, Shanghai, China) and the signals were monitored using the Tanon 5200 multi chemiluminescent imaging system (Tanon, Shanghai, China).
In general terms: In western blotting, separated proteins are transferred to a membrane and probed.

Each structure is given as a SMILES string. Several values for one entry are separate records, joined by “and”; a condition that tells them apart may be missing. Equal entries are not always repeated.

As usually defined, the solubility is the concentration that dissolves in the medium under given conditions. As a reminder, the logP is the decadic logarithm of the partition coefficient of the neutral form, usually between octanol and water. Take `COc1ccc2cc3[n+](cc2c1OC)CCc1cc2c(cc1-3)OCO2` [BBR, Berberine chloride dihydrate]: the solubility in data set [1] (octanol, organic solvent or mixture) worked out at 14.3 ± 0.41 µM. The same compound yielded a logP in data set [1] (octanol/water) of -0.041. Further, the solubility in data set [1] (water) was found to be 15.8 ± 0.81 µM. Besides, in data set [2], the “Expression of brown fat enrichment genes (Ucp1, Ppargc1a, Ppargc1b, Elovl3, Cox8b) in BAT” value is “elevated express” and the “Expression of lipogenic genes (Fasn, Acaca, Lpl) in eWAT” value is listed as “downregulation of lipogenic genes”. Besides, the “cAMP levels in eWAT” value with cAMP is listed as “increased the cAMP levels”. Moreover, in the data set with cAMP (db/db+ISO+BBR 150mg/kg), the “cAMP levels in eWAT (Figure 4l)” value is 0.3703 and 0.3189 and 0.32 and 0.3561 and 0.3523 and 0.3716. In addition, the “Release of glycerol in eWAT” value in the data set on glycerol release is “promoted the release of glycerol”. The “Glycerol release in eWAT (Figure 4m)” value with glycerol release (db/db+ISO+BBR 150mg/kg) is 626.099 and 631.162 and 626.943 and 630.318 and 632.849. For the same compound, the “Oil Red O staining of differentiated 3T3-L1 adipocytes spectrophotometric analysis” value in the data set with 3T3-L1 adipocytes (10μM BBR) was 0.6307 O.D. and 0.6591 O.D. and 0.6319 O.D. and 0.6294 O.D. and 0.6584 O.D. and 0.6194 O.D. In addition, the p-TBK1 in the data set with p-TBK1, p-AMPKα, UCP1 (Tnfa + 10um BBR) is 0.5119 and 0.483 and 0.454. Besides, in the data set with p-TBK1, p-AMPKα, UCP1 (Tnfa + 10um), the “UCP1 (western blotting, Figure 7k)” value was 0.8587 and 1.148 and 0.9274; the “p-AMPKα (western blotting, Figure 7j)” value was 0.5058 and 0.5536 and 0.7822.

The log P is a log measure of how a compound divides between an organic and an aqueous phase. In the case of `CC(C)Cc1ccc(C(C)C(=O)[O-])cc1.COc1ccc2cc3[n+](cc2c1OC)CCc1cc2c(cc1-3)OCO2.O.O.O.O` [BJ, berberine-ibuprofen], in data set [1], the “log P” value stood at 1.564. Besides, in data set [2], the “Expression of brown fat enrichment genes (Ucp1, Ppargc1a, Ppargc1b, Elovl3, Cox8b) in BAT” value is recorded as “elevated express”. For the same compound, the “Expression of lipogenic genes (Fasn, Acaca, Lpl) in eWAT” value in data set [2] is “downregulation of lipogenic genes”. Moreover, the “cAMP levels in eWAT” value in the data set on cAMP is reported as “increased the cAMP levels”. In addition, the “cAMP levels in eWAT (Figure 4l)” value is 0.344 (2×) and 0.3396 and 0.3778 and 0.3937 and 0.3516 in the data set with cAMP (db/db+ISO+BJ 75mg/kg); 0.3909 and 0.4246 and 0.4135 (2×) and 0.4162 and 0.4061 in the data set on cAMP (db/db+ISO+BJ 150mg/kg). The “Release of glycerol in eWAT” value in the data set on glycerol release is “promoted the release of glycerol”. Moreover, the “Glycerol release in eWAT (Figure 4m)” value in the data set on glycerol release (db/db+ISO+BJ 75mg/kg) is 372.977 and 400.82 and 389.008 and 382.258 and 389.852 and 395.758. Also, the “Oil Red O staining of differentiated 3T3-L1 adipocytes spectrophotometric analysis” value in the data set with 3T3-L1 adipocytes (3μM BJ) is 0.6023 O.D. and 0.5794 O.D. and 0.5902 O.D. and 0.5901 O.D. and 0.5958 O.D. and 0.5823 O.D; in the data set with 3T3-L1 adipocytes (10μM BJ), 0.6036 O.D. and 0.5893 O.D. and 0.5433 O.D. and 0.5202 O.D. and 0.5568 O.D. and 0.48 O.D. For the same compound, in the data set with 3T3-L1 adipocytes (differentiated 3T3-L1 adipocytes, BJ 3 μM and 10 μM, 24 h, Oil Red O), the “Accumulation of lipid droplets” value is “reduced the accumulation of lipid droplets in 3T3-L1 adipocytes in a dose-dependent manner”. Further, the p-TBK1 in the data set with p-TBK1, p-AMPKα, UCP1 (Tnfa + 3um BJ) is 0.5551 and 0.4207 and 0.3485; in the data set with p-TBK1, p-AMPKα, UCP1 (Tnfa + 10um BJ) it was 0.5649 and 0.4409 and 0.466. In addition, in the data set on p-TBK1, p-AMPKα, UCP1 (TNF-α induced 3T3-L1 adipocytes, BJ treatment for 24 h), the “Expression of p-AMPKα, UCP1, and p-TBK1” value is given as “increased significantly”. Further, the “UCP1 (western blotting, Figure 7k)” value in the data set with p-TBK1, p-AMPKα, UCP1 (Tnfa + 3um) was 0.6944 and 0.7423 and 0.5922; in the data set on p-TBK1, p-AMPKα, UCP1 (Tnfa + 10um), 1.271 and 1.387 and 0.9844. In addition, the “p-AMPKα (western blotting, Figure 7j)” value is 0.6086 and 0.4894 and 0.5999 in the data set on p-TBK1, p-AMPKα, UCP1 (Tnfa + 3um); 0.7332 and 0.6589 and 0.63 with p-TBK1, p-AMPKα, UCP1 (Tnfa + 10um).

The values above are taken from PMC9374667 (Communications Biology, 2022).
